Laboratory results: patent publication US6881719B2, “β-turn peptidomimetic cyclic compounds” (McGill University, priority 2000, dated 2005)
“And” between values parts separate entries of the source, which are not always exact repeats. Equal values may be shown once.

Legend:
[1] = molecular target: human TrkA expressed on transfected cells (4-3.6 cells; NIH3T3-TrkA cells) (human) (UniProt P04629); experiment: FACScan, 4-3.6 cells (p75+ TrkA+), avidin-FITC
cell surface TrkA = molecular target: T1, cell surface TrkA (Homo sapiens, UniProt P04629); experiment: FACScan competition of mAb 5C3 binding on 4-3.6 cells; settings: mAb 1 nM; competitor 40 μM
T1 construct: expressed in transfected cells
From the text: (§1) The 4-3.6 cells are B104 cells stably transfected with human trkA cDNA, and express equal levels of p75 and TrkA (TrkA+ p75+). For screening agents that activate or antagonize TrkC receptors, NIH3T3 fibroblasts were stably transfected with human TrkC cDNA. These cells respond to the ligand NT-3. For screening agents that activate or antagonize TrkA receptors, NIH3T3 fibroblasts were stably transfected with human TrkA cDNA. These cells respond to the ligand NGF.
(§2) FACScan binding assays: 4-3.6 cells (2×10^5) in FACScan binding buffer (PBS, 0.5% BSA, and 0.1% NaN3) were immunostained as described (Saragovi et al., 1998). Saturating anti-TrkA mAb 5C3, or anti-p75 mAb MC192, or control non-binding IgGs were added to cells for 1 hour at 4° C., in the presence or absence of D3 as competitor. Excess primary antibody was washed off, and cells were immunostained with fluorescinated goat-anti-mouse IgG secondary antibody. Cells were acquired on a FACScan and mean channel fluorescence of bell-shaped histograms were analyzed using the LYSIS II program.

TrkA-ECD = molecular target: T2, TrkA-ECD (Homo sapiens, UniProt P04629); experiment: ELISA competition of mAb 5C3 binding to immobilized TrkA-ECD; settings: mAb 5C3 2 nM; competitor 40 μM
T2 construct: pure soluble TrkA extracellular domain (TrkA-ECD) produced in baculovirus; made in house
Description: Direct binding studies: were done as described (Saragovi et al., 1998) using 6 ng/well of recombinant baculovirus TrkA-extracellular domain protein (TrkA-ECD) or control bovine serum albumin (BSA, Fraction V, Boehringer Mannheim) immobilized onto 96-well microtest plates. Wells were blocked with binding buffer (BB: PBS with 1% BSA) for 1 hour. Then, 50 ng/well of biotinylated D3 were added as primary reagent in BB for 40 min in the absence or presence of excess non-biotinylated D3 as competitor. Wells were washed 5 times with BB, and horseradish peroxidase (HRP)-coupled avidin (Sigma) was added as secondary reagent for 30 min. Plates were washed in BB, and peroxidase activity was determined colorimetrically using 2,2-azinobis (3-ethylbenzthiazoline sulfonic acid) (ABTS, Sigma). The optical density (OD) was measured at 414 nm in a Microplate reader (Bio-Rad). Assays were repeated at least three times, n=4.
Binding Competition: studies were as described for direct binding assays to TrkA-ECD, except that as primary reagent 50 ng anti-TrkA mAb 5C3/well were added in BB, in the presence or absence of D3 or controls as competitors as described (Saragovi et al., 1998). Wells were washed 5 times with BB, and HRP-coupled goat anti-mouse was added as secondary reagent for 30 min. Plates were washed in BB, and peroxidase activity were determined. Assays were repeated at least three times, n=4.

[2] = molecular target: T3, HEK 293 cells expressing TrkB/TrkA IgG-C2 chimeric receptor (Homo sapiens, UniProt P04629+Q16620); experiment: Cell survival (MTT), HEK 293-TrkB/TrkA IgG-C2 chimera; format: cell-based; settings: HEK 293-TrkB/TrkA chimera, 72 hours;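 as to % Protection: 100% equals survival with optimal NGF at 1 nM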
T3 construct: The IgG-C2 domain of human TrkA was generated using unique restriction sites; expressed in transfected cells
From the text: The IgG-C2 domain of human TrkA was generated using unique restriction sites in the primers to allow exchange with the corresponding rat TrkB domain. The chimeric receptors were constructed by subcloning the human TrkA IgG-C2 domain into the corresponding restriction sites of the rat trkB cDNA reported in a previous work (Perez et al., 1995). Chimeric constructs were confirmed by sequencing, and were cloned into the pCDNA3 expression vector that contains a selection gene providing resistance to neomycin (G418, GIBCO). HEK293 cells were transfected using the lipofectamine plus method (GIBCO), selected with neomycin (0.5 mg/ml) and at least 3 independent subclones were obtained by limiting dilution techniques (293-TrkB/A-IgC2 chimera).
(§3) Cell lines: 5,000 cells/well in protein-free media (PFHM-II, GIBCO, Toronto) containing 0.2% bovine serum albumin (BSA) (Crystalline fraction V, Sigma, St. Louis, Mo.) were seeded in 96 well plates (Falcon, Mississauga, Ontario). The cultures were untreated, or treated with the indicated test or control ligands. Cell viability was quantitated using the MTT assay after 56-72 hours of culture. […] The OD of untreated cells were subtracted.

[3] = system: embryonic rat DRG primary neuronal cultures; experiment: Cell survival (MTT), primary DRG cultures; format: cell-based; settings: compound 10 μM alone; 8 days;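 as to % Protection: 100% equals survival with optimal NGF at 1 nM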
Description: Fetal rat DRG primary cultures were established from Sprague Dawley day 17 rat embryos. All ganglia were dissected and dissociated first enzymatically with trypsin and then mechanically. Dissociated cells were cultured (10^5 cells/well) in 96 well plates pre-coated with collagen, and grown for a total of 8 days in Neuro Basal Medium containing N2 supplement (GIBCO, Toronto), antibiotics, and L-glutamine. These DRG cultures are ˜85% TrkA-expressing and are heavily dependent on TrkA signals for survival.
Primary DRG cultures: After a total of 8 days of culture with the indicated test or control ligands, cell survival were studied using the 3(4,5-Dimethylthiazolyl-2)-2,5-diphenyl tetrazolium bromide colorimetric (MTT) assay, and by microscopic observation.
as §3, with “subtracted. The higher optical density of untreated primary cultures is likely due to cellular heterogeneity and to endogenous production of limiting amounts of growth factors.” for “subtracted.”

4-3.6 cells (p75+TrkA+) = experiment: Cell survival (MTT), 4-3.6 cells; format: cell-based, rat; settings: 72 hours;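 as to % Protection: 100% equals survival with optimal NGF at 1 nM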
From the text: as §1
as §3, with “subtracted. The higher optical density of untreated primary cultures is likely due to cellular heterogeneity and to endogenous production of limiting amounts of growth factors.” for “subtracted.”

septal neuronal cultures = experiment: ChAT activity in septal neuronal cultures; format: cell-based, rat; settings: compound 20 μM alone; day 8
Description: Cell cultures were established from the septal area of 17-day-old rat embryos. In brief, tissue was incubated in PBS containing trypsin and DNase. Tissue pieces then were mechanically dissociated. After centrifugation, the pellet was suspended in Leibovitz's L-15 medium. Cells were plated onto 96-multiwell NUNC dishes (10^5 cells/well) coated with poly-D-lysine (5 μg/ml). Pure cultures of septal neurons were treated 1 day after plating. Drugs, prepared in medium, were added directly to the cells without changing the initial medium. The incubation continued for 8 days, at which time ChAT activity was evaluated.
At day 8 of culture, the medium was aspirated, and ice-cold lysis buffer (10 mM sodium phosphate, pH 7.4/0.1% TritonX-100—Trade-mark) was added. ChAT activity assays were performed directly in the wells using Fonnum's method (Fonnum, 1975).

p75 NGF receptor subunit = molecular target: T4, p75 NGF receptor subunit (Rattus norvegicus, UniProt P07174); experiment: FACScan competition of anti-p75 mAb MC192 binding on 4-3.6 cells
T4 construct: B104 rat neuroblastomas express p75 receptors; endogenous in cells
From the text: as §1, §2

[4] = molecular target: T5, NIH3T3 fibroblasts expressing TrkC (Homo sapiens, UniProt Q16288); experiment: Cell survival (MTT), NIH-TrkC; format: cell-based; settings: 72 hours
T5 construct: expressed in transfected cells; host or cells: NIH3T3 fibroblasts
From the text: as §1
as §3, with “subtracted. The higher optical density of untreated primary cultures is likely due to cellular heterogeneity and to endogenous production of limiting amounts of growth factors.” for “subtracted.”

[5] = molecular target: T6, NIH3T3 fibroblasts expressing TrkA (Homo sapiens, UniProt P04629); experiment: Cell survival (MTT), NIH-TrkA; format: cell-based; settings: 72 hours;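 also: 100% equals survival with optimal NGF at 1 nM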
T6 construct: expressed in transfected cells; host or cells: NIH3T3 fibroblasts
From the text: as §1, with “These cells respond to the ligand NT-3.” left out, “cDNA.” for “cDNA. These cells respond to the ligand NGF.”
as §3

[6] = system: wild type NIH3T3 fibroblasts; experiment: Cell survival (MTT), NIH wt; format: cell-based; settings: 72 hours
From the text: as §1
as §3, with “subtracted. The higher optical density of untreated primary cultures is likely due to cellular heterogeneity and to endogenous production of limiting amounts of growth factors.” for “subtracted.”

T3 sequence (P04629 299-365 limits assumed, change not shown, one chain of several): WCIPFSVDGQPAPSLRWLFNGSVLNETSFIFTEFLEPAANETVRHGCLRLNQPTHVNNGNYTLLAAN
T6 sequence (P04629 33-796): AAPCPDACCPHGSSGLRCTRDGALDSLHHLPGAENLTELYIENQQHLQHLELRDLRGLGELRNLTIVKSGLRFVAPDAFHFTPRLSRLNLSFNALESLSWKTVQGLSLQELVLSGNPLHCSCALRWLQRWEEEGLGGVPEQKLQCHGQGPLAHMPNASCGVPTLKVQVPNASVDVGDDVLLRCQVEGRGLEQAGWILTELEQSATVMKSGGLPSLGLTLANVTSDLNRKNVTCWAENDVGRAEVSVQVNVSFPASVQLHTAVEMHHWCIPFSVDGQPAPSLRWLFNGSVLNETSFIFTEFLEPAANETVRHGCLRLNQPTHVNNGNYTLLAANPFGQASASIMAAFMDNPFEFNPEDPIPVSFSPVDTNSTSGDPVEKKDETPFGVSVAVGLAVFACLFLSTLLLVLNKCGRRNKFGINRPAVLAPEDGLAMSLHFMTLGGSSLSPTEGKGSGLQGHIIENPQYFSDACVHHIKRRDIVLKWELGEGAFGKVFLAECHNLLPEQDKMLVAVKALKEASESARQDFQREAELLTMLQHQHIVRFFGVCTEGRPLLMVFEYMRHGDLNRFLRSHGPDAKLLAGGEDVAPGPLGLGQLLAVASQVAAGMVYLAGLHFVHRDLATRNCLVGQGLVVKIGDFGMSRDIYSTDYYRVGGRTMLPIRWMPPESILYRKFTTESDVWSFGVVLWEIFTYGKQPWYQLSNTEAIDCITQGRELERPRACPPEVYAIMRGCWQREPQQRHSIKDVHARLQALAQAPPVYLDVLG
T5 sequence (Q16288 32-839): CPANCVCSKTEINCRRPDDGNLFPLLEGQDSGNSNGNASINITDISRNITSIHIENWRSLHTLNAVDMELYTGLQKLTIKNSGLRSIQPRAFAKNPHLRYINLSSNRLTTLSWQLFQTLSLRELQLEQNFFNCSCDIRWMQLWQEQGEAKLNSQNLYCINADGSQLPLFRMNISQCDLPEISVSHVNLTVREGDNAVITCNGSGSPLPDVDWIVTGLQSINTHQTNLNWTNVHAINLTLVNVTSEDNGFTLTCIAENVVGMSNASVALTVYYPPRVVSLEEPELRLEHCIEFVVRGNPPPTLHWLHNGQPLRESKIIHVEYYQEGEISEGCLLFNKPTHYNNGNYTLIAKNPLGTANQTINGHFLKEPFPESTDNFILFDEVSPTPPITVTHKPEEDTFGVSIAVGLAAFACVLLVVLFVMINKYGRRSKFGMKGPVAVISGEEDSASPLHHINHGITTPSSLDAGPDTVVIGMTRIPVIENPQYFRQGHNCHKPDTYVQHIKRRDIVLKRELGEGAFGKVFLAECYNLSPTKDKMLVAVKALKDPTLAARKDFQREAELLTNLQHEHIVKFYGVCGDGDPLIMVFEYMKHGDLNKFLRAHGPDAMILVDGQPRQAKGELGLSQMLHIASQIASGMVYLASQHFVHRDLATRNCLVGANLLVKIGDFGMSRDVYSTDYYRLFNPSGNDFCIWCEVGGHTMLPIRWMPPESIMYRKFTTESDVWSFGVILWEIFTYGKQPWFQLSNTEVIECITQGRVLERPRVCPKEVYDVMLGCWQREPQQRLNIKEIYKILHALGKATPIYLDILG
Chain of human TrkA expressed on transfected cells (4-3.6 cells; NIH3T3-TrkA cells) (human) (P04629 33-796): as the sequence (P04629 33-796) above
T1 sequence (P04629 33-796): as above
T2 sequence (P04629 33-423 limits assumed): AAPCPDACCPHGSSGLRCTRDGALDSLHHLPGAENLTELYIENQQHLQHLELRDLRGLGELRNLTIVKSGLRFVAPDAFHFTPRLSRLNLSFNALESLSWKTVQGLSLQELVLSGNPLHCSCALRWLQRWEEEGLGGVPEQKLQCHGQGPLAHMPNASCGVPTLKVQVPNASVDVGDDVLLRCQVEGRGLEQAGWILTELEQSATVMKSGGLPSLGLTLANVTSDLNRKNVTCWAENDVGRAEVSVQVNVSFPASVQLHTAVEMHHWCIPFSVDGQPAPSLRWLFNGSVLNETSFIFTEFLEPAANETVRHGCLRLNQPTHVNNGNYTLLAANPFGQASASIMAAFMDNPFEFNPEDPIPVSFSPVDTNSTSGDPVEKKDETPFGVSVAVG
T4 sequence (P07174 30-425): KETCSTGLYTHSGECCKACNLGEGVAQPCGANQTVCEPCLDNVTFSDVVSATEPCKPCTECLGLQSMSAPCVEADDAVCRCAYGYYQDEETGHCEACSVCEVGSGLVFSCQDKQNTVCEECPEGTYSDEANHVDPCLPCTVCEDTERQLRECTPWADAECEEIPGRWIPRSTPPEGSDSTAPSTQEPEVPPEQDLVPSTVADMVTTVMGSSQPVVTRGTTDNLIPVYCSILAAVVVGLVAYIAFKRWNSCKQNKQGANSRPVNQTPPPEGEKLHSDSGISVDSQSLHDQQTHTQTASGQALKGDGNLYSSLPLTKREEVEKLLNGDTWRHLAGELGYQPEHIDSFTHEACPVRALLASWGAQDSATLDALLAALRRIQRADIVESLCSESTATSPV

## control-biotin (an inactive biotinylated peptide)
[1]
  MCF: 10 MCF

## NCCCC[C@@H]1NC(=O)[C@H](CCC(=O)O)NC(=O)c2cc([N+](=O)[O-])ccc2SCC(C(N)=O)NC1=O (some centres unmarked) [C59, EKCys]
Cell surface TrkA
  % Maximal binding of mAb 5C3: 97 ± 6%
TrkA-ECD
  % Binding of mAb 5C3 to TrkA-ECD: 96 ± 9%
[2]; compound 10 μM + 10 pM NGF
  % Protection: 21 ± 6%
  Optical Density: 90 ± 9
[2]; compound 10 μM alone
  % Protection: −1 ± 2%
  Optical Density: 30 ± 7
[3]
  % Protection: 0 ± 1%
  Optical Density: 271 ± 8
4-3.6 cells (p75+TrkA+); compound 10 μM + 10 pM NGF
  % Protection: 41 ± 4%
  Optical Density: 209 ± 17
4-3.6 cells (p75+TrkA+); compound 10 μM alone
  % Protection: 2 ± 1%
  Optical Density: 76 ± 4
Septal neuronal cultures
  ChAT Activity: 0.30 ± 0.05 pmol Ach/min/well
  Fold Increase (ChAT activity): 1
p75 NGF receptor subunit
  inhibition of mAb MC192 binding: did not inhibit

## CCC(C)[C@@H]1NC(=O)C(CC(=O)O)NC(=O)c2cc([N+](=O)[O-])cc(I)c2OCCC(C(N)=O)NC1=O (some centres unmarked) [P23]
[4]; agent 10 μM + 10 pM NGF
  NIH-TrkC % Protection: 11 ± 5%
[4]; agent 10 μM + 10 pM NT-3
  NIH-TrkC % Protection: 51 ± 7%
[4]; agent 10 μM alone
  NIH-TrkC % Protection: 8 ± 2%
[5]; agent 10 μM + 10 pM NGF
  NIH-TrkA % Protection: 52 ± 3%
[5]; agent 10 μM + 10 pM NT-3
  NIH-TrkA % Protection: 21 ± 3%
[5]; agent 10 μM alone
  NIH-TrkA % Protection: 15 ± 2%
[6]; agent 10 μM + 10 pM NGF
  NIH wt % Protection: 1 ± 3%
[6]; agent 10 μM + 10 pM NT-3
  NIH wt % Protection: 1 ± 3%
[6]; agent 10 μM alone
  NIH wt % Protection: 0 ± 3%

## NC(=O)C[C@@H]1NC(=O)[C@H](CCC(=O)O)NC(=O)c2cc([N+](=O)[O-])cc(I)c2NCCC(C(N)=O)NC1=O (some centres unmarked) [P43]
[5]; agent 10 μM + 10 pM NGF
  NIH-TrkA % Protection: 12 ± 3%
[5]; agent 10 μM + 1 nM NGF
  NIH-TrkA % Protection: 55% and 55 ± 7%
[5]; agent 10 μM alone
  NIH-TrkA % Protection: 4 ± 3%
[6]; agent 10 μM alone
  NIH wt % Protection: 2 ± 4%

## CC(O)[C@@H]1NC(=O)[C@H](CCCCN)NC(=O)c2cc([N+](=O)[O-])cc(I)c2OCCC(C(N)=O)NC1=O (some centres unmarked) [P27]
[4]; agent 10 μM + 10 pM NT-3
  NIH-TrkC % Protection: 62 ± 6%
[4]; agent 10 μM alone
  NIH-TrkC % Protection: 13 ± 3%
[5]; agent 10 μM + 10 pM NT-3
  NIH-TrkA % Protection: 4 ± 1%
[5]; agent 10 μM alone
  NIH-TrkA % Protection: 5 ± 2%
[6]; agent 10 μM + 10 pM NT-3
  NIH wt % Protection: 5 ± 4%
[6]; agent 10 μM alone
  NIH wt % Protection: −2 ± 4%
